Consider 21 compounds from patent US11731946B2, “Broad spectrum antivirulence, anti-persistence compounds” (priority 2017, dated 2023).

In test [1] the test system is MvfR regulon. Briefly: Quantification of pyocyanin (OD520nm of chloroform-extracted cultures). To be noted: for activity at 50 µM / activity at 1 µM / activity at 10 µM: Pseudomonas aeruginosa; for activity at 50 µM: read-out: pyocyanin @50 uM (%), compound at 50 uM; for activity at 1 µM: read-out: pyocyanin @1 uM (%), compound at 1 uM; for activity at 10 µM: read-out: pyocyanin @10 uM (%), compound at 10 uM. Type of test: cell-based, P. aeruginosa.

For test [2], the system named is MvfR regulon. Briefly: pqsA gene expression (pqsA-GFP reporter). Type of test: cell-based, P. aeruginosa. Particulars: for activity at 50 µM / activity at 10 µM: Pseudomonas aeruginosa; for activity at 50 µM: read-out: pqsA @50 uM (%), compound at 50 uM; for activity at 10 µM: read-out: pqsA @10 uM (%), compound at 10 uM. How it is done: Experiments were performed to identify compounds that inhibit the MvfR regulon without altering growth, ultimately attenuating P. aeruginosa infection. MvfR is a LysR-type transcriptional regulator that directs HAQs synthesis, including that of its ligands, 4-hydroxy-2-heptylquinoline (HHQ) and 3,4-dihydroxy-2-heptylquinoline (PQS).
MvfR promotes the production of HAQs by binding to and activating the pqs operon, which encodes enzymes for HAQ synthesis. Anthranilic acid (AA), derived from the phnAB, kynABU, and trpEG pathways, is the precursor for HAQs. pqsA encodes an anthranilate-coenzyme A ligase, which activates anthranilic acid and catalyzes the first committed step to HAQ production. The exact roles of PqsB and PqsC are unknown, though both show homology to acyl-carrier-proteins and both are required for HHQ and PQS production. […] The final gene of the operon, pqsE encodes for a putative hydrolase, and while the protein is not required for the synthesis of HAQs, it is necessary for pyocyanin production.
Nanomolar levels of most of these MvfR antagonists impeded the activity of MvfR and in consequence the MvfR virulence regulated ACRP functions, including: (1) the production of the important pro-acute P. aeruginosa virulence factor pyocyanin (see e.g., FIG. 9A) the efficacy of two of these potent inhibitors, D57 and D88, was also confirmed by testing many different MDR P. aeruginosa clinical isolates (see e.g., FIG. 11A-11B), providing further confidence of their inhibitory potency; (2) the expression of the genes that encode the enzymes catalyzing the synthesis of both pro-acute and pro-persistence MvfR-regulated virulence molecules, 4-hydroxyl-2-alkyl-quinolines (HAQs) and 2-aminoacetophenon (2-AA), as assessed by pqsAGFP reporter gene expression (see e.g., FIG. 9B) and HAQ production showing the levels of MvfR inducers/ligands HHQ and PQS as well as of the molecules critical for biofilm and Antibiotic tolerant/persiters cells formation HQNO and 2-AA (see e.g., FIG. 9C); (3) AT/P cell formation (see e.g., FIGS. 11A, 12A); (4) biofilm formation (see e.g., FIG. 12B); and (5) biofilm dispersal of preformed biofilm by potentiating antibiotic action (see e.g., FIG. 11B).

Where [3] appears, read: compound at 50 uM, listed as D1.

On to `Cc1cc(F)ccc1NCC(=O)Nc1c(F)cccc1F` [Compound 22], for which the activity at 50 µM worked out at 89.9% in the test on MvfR regulon [1] and 89.2% with MvfR regulon [2].

As for `Cc1ccc(NCC(=O)N(C)c2ccccc2)c(C)c1` [Compound 32], the activity at 50 µM with MvfR regulon [1] turned out to be 111%; in the test with MvfR regulon [2], 88%.

`N#Cc1ccc(NC(=O)CC(O)Cc2ccc(F)cc2)cc1` (centres unmarked) [Compound 104]: the activity at 50 µM with MvfR regulon [1] is 95.3%. Moreover, in the test on MvfR regulon [2], the activity at 10 µM was 97.3%.

For the compound `N#Cc1ccc(NC(=O)C2CCN(c3ccc(F)cc3)C2=O)cc1` (centres unmarked) [Compound 94], in the test on MvfR regulon [1], the activity at 1 µM was 94.6%, the activity at 10 µM worked out at 94% and the activity at 50 µM stood at 95.2%. Besides, the activity at 10 µM in the test on MvfR regulon [2] is 109%.

With `Cc1cc(F)ccc1NCC(=O)Nc1cccc(C#N)c1` [Compound 25], the activity at 50 µM in the test with MvfR regulon [1] was found to be 100%; in the test on MvfR regulon [2] it was 90.2%.

Turning to `Cc1ccc(NCC(=O)Nc2ccc(C#N)cc2)cc1F` [Compound 40], the activity at 50 µM in the test with MvfR regulon [1] turned out to be 59.5%; in the test on MvfR regulon [2], 42%.

As to `N#Cc1ccc(/C=C/C(=O)Nc2ccc(C#N)cc2)cc1` [Compound 98], in the test with MvfR regulon [1], the activity at 1 µM was 94.5%, the activity at 10 µM was found to be 108% and the activity at 50 µM was 114%. Also, in the test with MvfR regulon [2], the activity at 10 µM was 114%.

Take `N#Cc1ccc(NCC(=O)Nc2ccc(F)cc2)cc1` [Compound 36]: the activity at 50 µM in the test with MvfR regulon [1] was 59.1%; in the test on MvfR regulon [2] it was 25.5%.

Take `O=C(CC(=O)Nc1ccc(C(F)(F)F)cc1)Nc1ccc(Oc2ccccc2)cc1` [Compound 113]: in the test with MvfR regulon [1], the activity at 1 µM amounted to 68%, the activity at 10 µM stood at 60.9% and the activity at 50 µM turned out to be 42.1%. Moreover, in the test on MvfR regulon [2], the activity at 10 µM came out at 37.2% and the activity at 50 µM stood at 28.8%.

Turning to `Cc1cc(F)ccc1NC(C)C(=O)Nc1ccc(C#N)cc1` (centres unmarked) [Compound 13], in the test with MvfR regulon [1] (setting [3]), the “pyocyanin @50 uM (%)” value is listed as 101.56%. For the same compound, in the test on MvfR regulon [2] (setting [3]), the “pqsA @50 uM (%)” value came to 88.58%.

With `CC(=O)c1ccccc1NC(=O)CNc1ccc(F)cc1C` [Compound 42], the values for the activity at 50 µM in the test with MvfR regulon [1] and in the test with MvfR regulon [2] were 91.4% and 94.2%, respectively.

For `Cc1ccc(NC(=O)CNc2ccc(F)cc2C)c(C)c1` [Compound 33], the activity at 50 µM in the test with MvfR regulon [1] was 112%; with MvfR regulon [2] it was 87.3%.

With `O=C(Nc1ccc(Oc2ccccc2)cc1)[C@@H](F)C(=O)Nc1ccc(C(F)(F)F)cc1` (racemic) [Compound 115], in the test on MvfR regulon [1], the activity at 1 µM is 27.1%, the activity at 10 µM came to 11.4% and the activity at 50 µM was found to be 7.08%. In addition, in the test on MvfR regulon [2], the activity at 10 µM was found to be 1.05% and the activity at 50 µM is 1.75%.

For the compound `N#Cc1ccc(NC(=O)CC(=O)Nc2cccc(C#N)c2)cc1` [Compound 90], in the test on MvfR regulon [1], the activity at 1 µM was found to be 91.8%, the activity at 10 µM came to 88.5% and the activity at 50 µM turned out to be 49.4%. Moreover, in the test with MvfR regulon [2], the activity at 10 µM was 97.2%.

For `N#Cc1ccc(NC(=O)CC(=O)Nc2cccc(F)c2)cc1` [Compound 87], in the test with MvfR regulon [1], the activity at 1 µM was 94.6%, the activity at 10 µM worked out at 65.5% and the activity at 50 µM is 30.2%. For the same compound, the activity at 10 µM in the test on MvfR regulon [2] worked out at 77.8%.

`Cc1ccc(NC(=O)CNc2ccc(F)cc2C)c(Br)c1` [Compound 24]: the activity at 50 µM came to 108% with MvfR regulon [1] and 92.3% with MvfR regulon [2].

For the compound `Cc1ccc(F)cc1NCC(=O)Nc1ccc(C#N)cc1` [Compound 30], the activity at 50 µM was determined as 68.5% with MvfR regulon [1] and 28.1% in the test with MvfR regulon [2].

For the compound `CCc1ccccc1NCC(=O)Nc1ccc(C#N)cc1` [Compound 15], the results for the activity at 50 µM with MvfR regulon [1] and with MvfR regulon [2] were 97.3% and 92%, respectively.

With `Cc1ccccc1NCC(=O)Nc1ccccc1` [Compound 38], the results for the activity at 50 µM with MvfR regulon [1] and in the test with MvfR regulon [2] were 102% and 95.4%, respectively.

Turning to `Cc1cc(F)ccc1NCC(=O)Nc1ccc(N2CCCC2=O)cc1` [Compound 21], the values for the activity at 50 µM with MvfR regulon [1] and with MvfR regulon [2] were 107% and 105%, respectively.

As to `CC(=O)c1ccc(NC(=O)CNc2ccc(F)cc2C)cc1` [Compound 20], the results for the activity at 50 µM in the test on MvfR regulon [1] and in the test on MvfR regulon [2] were 102% and 97.7%, respectively.
